Reference: the NIST ThermoML archive (doi:10.1021/je200457q)

Tests used:
[1] = excess molar enthalpy (molar enthalpy of mixing); xn = mol fraction of the nth substance listed; conditions: 101 kPa, Liquid, Flow calorimetry
[2] = 298.15 K; 101.33 kPa; Liquid; Vibrating tube method

C=CC(C)(O)CCC=C(C)C (stereo not given) [3,7-dimethyl-1,6-octadien-3-ol] + CCCO
excess molar enthalpy [kcal/mol], [1]
Conditions | 283.15 K | 298.15 K | 313.15 K | 328.15 K
x1 = 0.048 | -0.0404 | -0.0392 | -0.0428 | -0.0411
x1 = 0.096 | -0.0772 | -0.0786 | -0.0786 | -0.0698
x1 = 0.188 | -0.13 | -0.136 | -0.134 | -0.112
x1 = 0.29 | -0.153 | -0.167 | -0.162 | -0.131
x1 = 0.383 | -0.154 | -0.168 | -0.161 | -0.132
x1 = 0.491 | -0.142 | -0.148 | -0.142 | -0.119
x1 = 0.584 | -0.121 | -0.124 | -0.123 | -0.0997
x1 = 0.693 | -0.0884 | -0.0908 | -0.0937 | -0.0777
x1 = 0.794 | -0.0588 | -0.0614 | -0.0686 | -0.0574
x1 = 0.894 | -0.027 | -0.0311 | -0.0356 | -0.0304
x1 = 0.945 | -0.0139 | -0.0163 | -0.0191 | -0.0165

CC(C)O [propan-2-ol]
Conditions | mass density [kg/m3]
[2] | 781.23

C=CC(C)(O)CCC=C(C)C (stereo not given) [3,7-dimethyl-1,6-octadien-3-ol] + CCCCO
excess molar enthalpy [kcal/mol], [1]
Conditions | 283.15 K | 298.15 K | 313.15 K | 328.15 K
x1 = 0.042 | -0.00311 | -0.00717 | -0.00717 | -0.00526
x1 = 0.085 | -0.00502 | -0.0143 | -0.0158 | -0.022
x1 = 0.174 | -0.00526 | -0.0227 | -0.0349 | -0.0526
x1 = 0.265 | -0.00287 | -0.0241 | -0.0466 | -0.0724
x1 = 0.359 | -0.000239 | -0.0217 | -0.0514 | -0.082
x1 = 0.457 | 0.00215 | -0.0182 | -0.0509 | -0.0837
x1 = 0.559 | 0.00574 | -0.0136 | -0.0447 | -0.0779
x1 = 0.661 | 0.00956 | -0.00669 | -0.0351 | -0.0624
x1 = 0.771 | 0.0136 | 0.000717 | -0.022 | -0.044
x1 = 0.884 | 0.0141 | 0.00621 | -0.00741 | -0.021
x1 = 0.943 | 0.0105 | 0.00526 | -0.00191 | -0.00884

C=CC(C)(O)CCC=C(C)C (stereo not given) [3,7-dimethyl-1,6-octadien-3-ol] + CCO
excess molar enthalpy [kcal/mol], [1]
Conditions | 283.15 K | 298.15 K | 313.15 K | 328.15 K
x1 = 0.047 | -0.0366 | -0.0366 | -0.0418 | -0.0413
x1 = 0.094 | -0.0741 | -0.0805 | -0.0839 | -0.0798
x1 = 0.19 | -0.143 | -0.152 | -0.157 | -0.143
x1 = 0.29 | -0.185 | -0.198 | -0.202 | -0.18
x1 = 0.387 | -0.191 | -0.207 | -0.212 | -0.189
x1 = 0.481 | -0.179 | -0.19 | -0.199 | -0.177
x1 = 0.585 | -0.152 | -0.165 | -0.17 | -0.152
x1 = 0.695 | -0.11 | -0.121 | -0.128 | -0.114
x1 = 0.78 | -0.0743 | -0.0923 | -0.101 | -0.0875
x1 = 0.895 | -0.0335 | -0.0423 | -0.0473 | -0.0411
x1 = 0.946 | -0.0165 | -0.021 | -0.0249 | -0.0232

CCO [ethanol]
Conditions | mass density [kg/m3]
[2] | 785.46

CCCO [propan-1-ol]
Conditions | mass density [kg/m3]
[2] | 799.56

C=CC(C)(O)CCC=C(C)C (stereo not given) [3,7-dimethyl-1,6-octadien-3-ol] + CC(C)O
excess molar enthalpy [kcal/mol], [1]
Conditions | 283.15 K | 298.15 K | 313.15 K | 328.15 K
x1 = 0.024 | -0.00789 | -0.00741 | -0.00574 | -0.00191
x1 = 0.048 | -0.011 | -0.0117 | -0.00908 | -0.00239
x1 = 0.097 | -0.0141 | -0.0148 | -0.0115 | -0.000717
x1 = 0.195 | -0.0174 | -0.0174 | -0.0108 | 0.00621
x1 = 0.292 | -0.0186 | -0.0172 | -0.00837 | 0.0131
x1 = 0.392 | -0.0196 | -0.0163 | -0.0055 | 0.0184
x1 = 0.49 | -0.0196 | -0.0134 | -0.00167 | 0.0215
x1 = 0.592 | -0.0174 | -0.00884 | 0.00191 | 0.022
x1 = 0.693 | -0.012 | -0.00287 | 0.00478 | 0.0184
x1 = 0.796 | -0.00454 | 0.00143 | 0.00454 | 0.0131
x1 = 0.894 | 0.000717 | 0.00215 | 0.00167 | 0.00574
x1 = 0.948 | 0.000478 | 0.000717 | 0.000717 | 0.00263

CCCCO [butan-1-ol]
Conditions | mass density [kg/m3]
[2] | 805.71

C=CC(C)(O)CCC=C(C)C (stereo not given) [3,7-dimethyl-1,6-octadien-3-ol]
Conditions | mass density [kg/m3]
[2] | 857
